Data published in paper PMC9246773, “Assessing the Activity of Antimicrobial Peptides Against Common Marine Bacteria Located in Rotifer (Brachionus plicatilis) Cultures” (Probiotics and Antimicrobial Proteins, 2022).
No end group written: not given here.

What was measured:
Type in all cases: cell-based
bacterial isolates [1] = conditions: 48 h
Description: (§1) A range of bacterial species with the potential to be transferred to developing fish larvae as pathogens or probiotics were selected for use in the study (Table 2). Bacterial isolates were stored at −80 °C and thawed, and 25 µL of the isolates was spread onto marine salt agar (MSA) media. All isolates were incubated at 25 °C for 18 h to reach mid-log growth phase. All isolates were sub-cultured and identified using mass spectrometry (MALDI-TOF) using the BioTyper and MBT 8468 library (Bruker Pty Ltd). The isolate Tenacibaculum discolor was plated on Anacker and Oradal’s marine (AOM) media, incubated for 48 h and identified using the aforementioned method. Bacterial isolates were suspended in sterile saline (0.75% NaCl w/v) to 0.5 McFarland standard. […] The bacterial isolates T. discolor and Pseudoalteromonas sp. require marine salts to grow and were not added to MHB (0‰). The isolate T. discolor requires low nutrients to grow, therefore, a separate MHB (25‰) was prepared at a diluted ratio of 1 part MHB and 7 parts artificial seawater (25‰).
(§2) The protocol was followed to determine the minimum inhibitory concentration (MIC) of the selected peptides. Two MIC assays were performed, firstly to determine whether each peptide precipitated in MHB and thereby required acetic acid adjustments (supplementary materials) and secondly, to determine the antimicrobial activity of each peptide in artificial seawater (25‰). Peptide stock solutions (1.3 mg mL^−1) were made by diluting the peptides in sterile deionised water. MHB was made with deionised water to reach a concentration of approaching 0‰ and artificial sea salts (Sigma-Aldrich® S9883) to reach a salinity of 25‰.
Once the acetic acid requirement for each peptide was determined (Table 3), the antimicrobial activity of each peptide was tested at a salinity of 0‰ and 25‰ for all bacterial isolates. A stock solution for peptides that required acetic acid was prepared by a 1:2 dilution in acetic acid (0.02% acetic acid w/v, containing 0.4% BSA) solution. In a 96-well polypropylene microtitre plates (Costar® 3879), 100 µL of this peptide stock was added to the first well for each bacterial isolate tested and serially diluted twofold with acetic acid (0.01% acetic acid w/v, containing 0.2% BSA). From each well, 10 µL of each peptide concentration was added to the corresponding wells of a new 96-well microtitre plate. From each of the bacterial suspensions (0‰), 90 µL was added to each well. […] Twofold serial dilutions were made with MHB (0‰). From each of the bacterial suspensions (0‰), 50 µL was added to each well. The same method was followed for testing peptides in MHB at 25‰. All peptide concentrations ranged from 0.125 to 65 µg mL^−1, and the bacterial suspension in each well was approximately 5 × 10^5 CFU mL^−1. […]

[2] = system: Escherichia coli (ATCC 25922); conditions: ATCC 25922, 48 h
Description: as §1, §2
(§3) Once the acetic acid requirement for each peptide was determined (Table 3), the antimicrobial activity of each peptide was tested at a salinity of 0‰ and 25‰ for all bacterial isolates. A stock solution for peptides that required acetic acid was prepared by a 1:2 dilution in acetic acid (0.02% acetic acid w/v, containing 0.4% BSA) solution. In a 96-well polypropylene microtitre plates (Costar® 3879), 100 µL of this peptide stock was added to the first well for each bacterial isolate tested and serially diluted twofold with acetic acid (0.01% acetic acid w/v, containing 0.2% BSA). From each well, 10 µL of each peptide concentration was added to the corresponding wells of a new 96-well microtitre plate. From each of the bacterial suspensions (0‰), 90 µL was added to each well. […] Twofold serial dilutions were made with MHB (0‰). From each of the bacterial suspensions (0‰), 50 µL was added to each well. The same method was followed for testing peptides in MHB at 25‰. All peptide concentrations ranged from 0.125 to 65 µg mL^−1, and the bacterial suspension in each well was approximately 5 × 10^5 CFU mL^−1. The different salinities were used to compare any differences in antimicrobial activity in 0‰ and 25‰ water. […] Each bacterium was trialled in duplicate.

Pseudoalteromonas sp. = conditions: 48 h
Description: as §1, §2, §3

Shewanella sp. [3] = conditions: 48 h
Description: as §1, §2, §3

Tenacibaculum discolor = conditions: 48 h
Description: as §1, §2, §3

Vibrio alginolyticus [4] = conditions: 48 h
Description: as §1, §2, §3

[5] = system: Vibrio harveyi (ATCC 35084); conditions: ATCC 35084, 48 h
Description: as §1, §2, §3

Vibrio harveyi [6] = conditions: 48 h
Description: as §1, §2, §3

Vibrio rotiferianus [7] = conditions: 48 h
Description: as §1, §2, §3

Vibrio scophthalmi [8] = conditions: 48 h
Description: as §1, §2, §3

bacterial isolates [9] = conditions: 48 h; remark: listed apart in the source
Description: as §1, §2, §3

[10] = system: Escherichia coli (ATCC 25922); conditions: ATCC 25922, 48 h; remark: listed apart in the source
Description: as §1, §2
(§4) A broth microdilution protocol was followed to test whether the AMPs precipitated in MHB. The isolates T. discolor and Pseudoalteromonas were excluded from this assay because they required marine salts for growth. The peptides HHC10 and HHC36 previously required acetic acid adjustments according to [63] and were not trialled in this assay. To test if peptides required acetic acid, each peptide was diluted 1:2 in acetic acid (0.02% acetic acid w/v, containing 0.4% BSA) solution. In a 96-well polypropylene microtitre plates (Costar® 3879), 100 µL of this peptide stock was added to the first well for each bacterial isolate tested and serially diluted 2-fold with acetic acid (0.01% acetic acid w/v, containing 0.2% BSA). From each well, 10 µL of each peptide concentration was added to the corresponding wells of a new 96-well microtitre plate. From each of the bacterial suspensions in MHB (0‰), 90 µL was added to each well. […] From each of the bacterial suspensions in MHB (0‰), 50 µL was added to each well. All peptide concentrations ranged from 0.125 - 65µg mL^-1 and the bacterial suspension in each well was approximately 5 × 10^5 CFU mL^-1. Antimicrobial peptides that have an MIC value two or more dilutions higher in the assay with no acetic acid, compared to the assay with acetic acid, require acetic acid adjustments. The 96-well plates were incubated at 25 °C and read at 24 and 48 hours. The MIC was visually determined using a Sensititre™ Vizion™ Digital MIC Viewing System (Thermo Scientific™), and the lowest AMP concentration that had no bacterial growth was recorded as the MIC after 48 hours. Each bacterium was trialled in duplicate.

Shewanella sp. [11] = conditions: 48 h; remark: listed apart in the source
Description: as §1, §2, §4

Vibrio alginolyticus [12] = conditions: 48 h; remark: listed apart in the source
Description: as §1, §2, §4

[13] = system: Vibrio harveyi (ATCC 35084); conditions: ATCC 35084, 48 h; remark: listed apart in the source
Description: as §1, §2, §4

Vibrio harveyi [14] = conditions: 48 h; remark: listed apart in the source
Description: as §1, §2, §4

Vibrio rotiferianus [15] = conditions: 48 h; remark: listed apart in the source
Description: as §1, §2, §4

Vibrio scophthalmi [16] = conditions: 48 h; remark: listed apart in the source
Description: as §1, §2, §4

KRWWKWIRW-NH2 [HHC10]
MIC in low salt conditions (over the bacterial isolates) (bacterial isolates [1]): 1 to 10 mg/L | MIC E. coli ATCC 25922, salinity 0‰ [2]: 4.06 mg/L | MIC E. coli ATCC 25922, salinity 25‰ [2]: > 65 mg/L | MIC Pseudoalteromonas sp., salinity 25‰ (Pseudoalteromonas sp.): > 65 mg/L | MIC Shewanella sp., salinity 0‰ (Shewanella sp. [3]): 4.06 mg/L | MIC Shewanella sp., salinity 25‰ (Shewanella sp. [3]): > 65 mg/L | MIC T. discolor, salinity 25‰ (Tenacibaculum discolor): > 65 mg/L | MIC V. alginolyticus, salinity 0‰ (Vibrio alginolyticus [4]): 2.03 mg/L | MIC V. alginolyticus, salinity 25‰ (Vibrio alginolyticus [4]): > 65 mg/L | MIC V. harveyi ATCC 35084, salinity 0‰ [5]: 4.06 mg/L | MIC V. harveyi ATCC 35084, salinity 25‰ [5]: > 65 mg/L | MIC V. harveyi, salinity 0‰ (Vibrio harveyi [6]): 8.13 mg/L | MIC V. harveyi, salinity 25‰ (Vibrio harveyi [6]): > 65 mg/L | MIC V. rotiferianus, salinity 0‰ (Vibrio rotiferianus [7]): 2.03 mg/L | MIC V. rotiferianus, salinity 25‰ (Vibrio rotiferianus [7]): > 65 mg/L | MIC V. scophthalmi, salinity 0‰ (Vibrio scophthalmi [8]): 2.03 mg/L | MIC V. scophthalmi, salinity 25‰ (Vibrio scophthalmi [8]): > 65 mg/L | MIC in artificial seawater (25‰) (over the bacterial isolates) (bacterial isolates [9]): > 65 mg/L

KKWQLLIKWKLR-NH2 [Peptide 3008]
MIC E. coli ATCC 25922, Acetic [10]: > 65 mg/L | MIC E. coli ATCC 25922, No acetic [10]: > 65 mg/L | MIC Shewanella sp., Acetic (Shewanella sp. [11]): 8.13 mg/L | MIC Shewanella sp., No acetic (Shewanella sp. [11]): 16.25 mg/L | MIC V. alginolyticus, Acetic (Vibrio alginolyticus [12]): 1.02 mg/L | MIC V. alginolyticus, No acetic (Vibrio alginolyticus [12]): 2.03 mg/L | MIC V. harveyi ATCC 35084, Acetic [13]: 16.25 mg/L | MIC V. harveyi ATCC 35084, No acetic [13]: 16.25 mg/L | MIC V. harveyi, Acetic (Vibrio harveyi [14]): 4.06 mg/L | MIC V. harveyi, No acetic (Vibrio harveyi [14]): 4.06 mg/L | MIC V. rotiferianus, Acetic (Vibrio rotiferianus [15]): 2.03 mg/L | MIC V. rotiferianus, No acetic (Vibrio rotiferianus [15]): 1.02 mg/L | MIC V. scophthalmi, Acetic (Vibrio scophthalmi [16]): 0.51 mg/L | MIC V. scophthalmi, No acetic (Vibrio scophthalmi [16]): 1.02 mg/L | MIC E. coli ATCC 25922, salinity 0‰ [2]: 8.13 mg/L | MIC E. coli ATCC 25922, salinity 25‰ [2]: > 65 mg/L | MIC Pseudoalteromonas sp., salinity 25‰ (Pseudoalteromonas sp.): > 65 mg/L | MIC Shewanella sp., salinity 0‰ (Shewanella sp. [3]): 16.25 mg/L | MIC Shewanella sp., salinity 25‰ (Shewanella sp. [3]): 32.5 mg/L | MIC T. discolor, salinity 25‰ (Tenacibaculum discolor): > 65 mg/L | MIC V. alginolyticus, salinity 0‰ (Vibrio alginolyticus [4]): 2.03 mg/L | MIC V. alginolyticus, salinity 25‰ (Vibrio alginolyticus [4]): > 65 mg/L | MIC V. harveyi ATCC 35084, salinity 0‰ [5]: 8.13 mg/L | MIC V. harveyi ATCC 35084, salinity 25‰ [5]: > 65 mg/L | MIC V. harveyi, salinity 0‰ (Vibrio harveyi [6]): 4.06 mg/L | MIC V. harveyi, salinity 25‰ (Vibrio harveyi [6]): > 65 mg/L | MIC V. rotiferianus, salinity 0‰ (Vibrio rotiferianus [7]): 2.03 mg/L | MIC V. rotiferianus, salinity 25‰ (Vibrio rotiferianus [7]): > 65 mg/L | MIC V. scophthalmi, salinity 0‰ (Vibrio scophthalmi [8]): < 0.13 mg/L | MIC V. scophthalmi, salinity 25‰ (Vibrio scophthalmi [8]): 32.5 mg/L | MIC in artificial seawater (25‰) (over the bacterial isolates) (bacterial isolates [9]): 32.5 mg/L

ILVRWIRWRIQW-NH2 [Peptide 3002]
MIC E. coli ATCC 25922, Acetic [10]: 8.13 mg/L | MIC E. coli ATCC 25922, No acetic [10]: 16.25 mg/L | MIC Shewanella sp., Acetic (Shewanella sp. [11]): 8.13 mg/L | MIC Shewanella sp., No acetic (Shewanella sp. [11]): 4.06 mg/L | MIC V. alginolyticus, Acetic (Vibrio alginolyticus [12]): 4.06 mg/L | MIC V. alginolyticus, No acetic (Vibrio alginolyticus [12]): 2.03 mg/L | MIC V. harveyi ATCC 35084, Acetic [13]: 4.06 mg/L | MIC V. harveyi ATCC 35084, No acetic [13]: 2.03 mg/L | MIC V. harveyi, Acetic (Vibrio harveyi [14]): 4.06 mg/L | MIC V. harveyi, No acetic (Vibrio harveyi [14]): 2.03 mg/L | MIC V. rotiferianus, Acetic (Vibrio rotiferianus [15]): 4.06 mg/L | MIC V. rotiferianus, No acetic (Vibrio rotiferianus [15]): 2.03 mg/L | MIC V. scophthalmi, Acetic (Vibrio scophthalmi [16]): 1.02 mg/L | MIC V. scophthalmi, No acetic (Vibrio scophthalmi [16]): 0.51 mg/L | MIC in low salt conditions (over the bacterial isolates) (bacterial isolates [1]): 1 to 10 mg/L | MIC E. coli ATCC 25922, salinity 0‰ [2]: 65 mg/L | MIC E. coli ATCC 25922, salinity 25‰ [2]: > 65 mg/L | MIC Pseudoalteromonas sp., salinity 25‰ (Pseudoalteromonas sp.): 65 mg/L | MIC Shewanella sp., salinity 0‰ (Shewanella sp. [3]): 8.13 mg/L | MIC Shewanella sp., salinity 25‰ (Shewanella sp. [3]): > 65 mg/L | MIC T. discolor, salinity 25‰ (Tenacibaculum discolor): 32.5 mg/L | MIC V. alginolyticus, salinity 0‰ (Vibrio alginolyticus [4]): 8.13 mg/L | MIC V. alginolyticus, salinity 25‰ (Vibrio alginolyticus [4]): > 65 mg/L | MIC V. harveyi ATCC 35084, salinity 0‰ [5]: 8.13 mg/L | MIC V. harveyi ATCC 35084, salinity 25‰ [5]: > 65 mg/L | MIC V. harveyi, salinity 0‰ (Vibrio harveyi [6]): 8.13 mg/L | MIC V. harveyi, salinity 25‰ (Vibrio harveyi [6]): > 65 mg/L | MIC V. rotiferianus, salinity 0‰ (Vibrio rotiferianus [7]): 8.13 mg/L | MIC V. rotiferianus, salinity 25‰ (Vibrio rotiferianus [7]): > 65 mg/L | MIC V. scophthalmi, salinity 0‰ (Vibrio scophthalmi [8]): 2.03 mg/L | MIC V. scophthalmi, salinity 25‰ (Vibrio scophthalmi [8]): > 65 mg/L
